The values below come from patent publication US5140018A, “1,3,2-benzodithiazole-1-oxide compounds” (Abbott Laboratories, priority 1991, dated 1992).

The structures appear in SMILES notation. ≈ marks a conversion by molar mass, not a printed value.

For series [1] the following is noted: in vivo; cited from earlier work.
The next series has as its system Candida albicans 579A. As to the kind of experiment: In vitro antifungal MIC, Candida albicans 579A. In kind it is cell-based. As to conditions: Candida albicans, 579A, 48 h. The method in brief:
(§1)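 Broth microdilution in yeast nitrogen base–dextrose medium at about pH 7.0, 2-fold serial dilutions from 100 μg/mL highest test level. Inoculum from overnight culture adjusted to 95% transmittance at 560 nm then diluted 1:50; incubated 48 h at 35–37 °C. MIC taken as lowest concentration giving no growth, slight haze or sparse colonies versus drug-free control.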

The subject of series [2] is Cryptococcus albidus ATCC 34140. As to the kind of experiment: In vitro antifungal MIC, Cryptococcus albidus ATCC 34140. It is filed as cell-based. As to conditions: Naganishia albida, ATCC34140, 48 h. The method in brief:
as §1

Series [3] deals with Candida tropicalis NRRL-Y-112. As to the kind of experiment: In vitro antifungal MIC, Candida tropicalis NRRL-Y-112. It is filed as cell-based. As to conditions: Candida tropicalis, NRRLY112, 48 h. The method in brief: as §1
The test system of series [4] is Candida albicans ATCC 10231. The series is described as follows: In vitro antifungal MIC, Candida albicans ATCC 10231. It is filed as cell-based. As to conditions: Candida albicans, ATCC10231, 48 h. The essentials:
as §1

For series [5], the system named is Candida albicans ATCC 38247. As to the kind of experiment: In vitro antifungal MIC, Candida albicans ATCC 38247. As to conditions: Candida albicans, ATCC38247, 48 h. In kind it is cell-based. The method in brief:
as §1

Series [6] relates to Candida albicans ATCC 62376. As to the kind of experiment: In vitro antifungal MIC, Candida albicans ATCC 62376. In kind it is cell-based. As to conditions: Candida albicans, ATCC62376, 48 h. The essentials: as §1
A further series concerns Candida albicans CCH 442. As to the kind of experiment: In vitro antifungal MIC, Candida albicans CCH 442. In kind it is cell-based. As to conditions: Candida albicans, CCH442, 48 h. The essentials: as §1
For series [7], the system named is Aspergillus niger ATCC 16404. As to the kind of experiment: In vitro antifungal MIC, Aspergillus niger ATCC 16404. It is filed as cell-based. As to conditions: Aspergillus niger, ATCC16404, 48 h. The method in brief: as §1
A further series relates to Candida kefyr ATCC 28838. The series is described as follows: In vitro antifungal MIC, Candida kefyr ATCC 28838. In kind it is cell-based. As to conditions: Kluyveromyces marxianus, ATCC28838, 48 h. The method in brief:
as §1

The conditions of series [8]: in vivo, cited from earlier work.
In another series the test system is kidney function. As to conditions: patients treated with amphotericin B; cited from earlier work.
In the next series the test system is fungi. As to conditions: cited from earlier work.
The test system of series [9] is Torulopsis glabrata ATCC 15545. The series is described as follows: In vitro antifungal MIC, Torulopsis glabrata ATCC 15545. In kind it is cell-based. As to conditions: Nakaseomyces glabratus, ATCC15545, 48 h. The essentials: as §1
For series [10], the system named is biosynthesis of testosterone. As to conditions: cited from earlier work.

As for `C[C@@H]1[C@H](O)[C@@H](C)/C=C/C=C/C=C/C=C/C=C/C=C/C=C/[C@H](O[C@@H]2O[C@H](C)[C@@H](O)[C@H](N)[C@@H]2O)C[C@@H]2O[C@](O)(C[C@@H](O)C[C@@H](O)[C@H](O)CC[C@@H](O)C[C@@H](O)CC(=O)O[C@H]1C)C[C@H](O)[C@H]2C(=O)O` [Amphotericin B, reference compound], the mammalian toxicity entry in series [1] is reported as “considerable”. Besides, the untoward effects result in series [1] was “anaphylaxis, thrombocytopenia, flushing, generalized pain, convulsions, chills, fever, phlebitis, headache, anemia, anorexia and decreased kidney function”. Besides, the MIC was determined as 1.56 µg/mL (≈ 1.69 µM) against Candida albicans 579A; 3.12 µg/mL (≈ 3.38 µM) in series [2]; 1.56 µg/mL (≈ 1.69 µM) in series [3]; 1.56 µg/mL (≈ 1.69 µM) in [4]; 12.5 µg/mL (≈ 13.5 µM) in series [5]; 1.56 µg/mL (≈ 1.69 µM) in [6]. Also, the MIC against Candida albicans CCH 442 worked out at 1.56 µg/mL (≈ 1.69 µM); in [7], 3.12 µg/mL (≈ 3.38 µM); in the series with Candida kefyr ATCC 28838, 1.56 µg/mL (≈ 1.69 µM); in series [9], 3.12 µg/mL (≈ 3.38 µM). Also, the oral bioavailability entry in series [8] (po) is listed as “poor”. The “patients experiencing impaired kidney function” value in the series with kidney function is given as 80%. In addition, the fungistatic/fungicidal action result in the series with fungi is reported as “fungicidal”.
Consider `CC(=O)N1CCN(c2ccc(OCC3COC(Cn4ccnc4)(c4ccc(Cl)cc4Cl)O3)cc2)CC1` (centres unmarked) [Ketoconazole], for which, in series [1], the hepatotoxicity result is given as “hepatotoxins”. Further, the oral activity entry in [8] (po) is recorded as “orally active”. The “absorption into the cerebrospinal fluid” value in series [8] is recorded as “poorly absorbed”. In addition, the fungistatic/fungicidal action result with fungi is “fungistatic and not fungicidal”. Also, in [10], the “inhibition of testosterone biosynthesis” value is given as “inhibitors of the biosynthesis of testosterone”.

As a reminder, the MIC is the smallest concentration in the dilution series that meets the test's criterion for growth inhibition.
